Assay results taken from patent publication US20240368150A1 (Hoffmann-La Roche Inc., priority 2021, published 2024).
Like-named read-outs stand apart in the source and are kept apart here.

What was measured:
primary human T-cells [1] = assay: Proliferation assay after 5 days (CellTiter-Glo, CD3 stimulation; PBS counter screen); format: cell-based; settings: Homo sapiens, T-cell, 120 h, CD3 stimulation; for Emax: 5 days, normalized to reference compound A1 as stimulator control = 100%, DMSO neutral control, read-out: Emax proliferation (% activation); for EC50: primary human T-cells, CellTiter-Glo after 5 days, EC50 of fitted sigmoidal curve, read-out: Tcell Proliferation CD3 EC50
How it was run: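 Read-out: CellTiter-Glo 2.0 luminescence (ATP ∝ cell number) at day 5 after compound addition. Compounds activating unstimulated cells or reducing viability flagged.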

primary human T-cells [2] = tested on: primary human T-cells

| SMILES | Emax (primary human T-cells [1]) [%] | EC50 (primary human T-cells [1]) [nM] | EC50 (primary human T-cells [2]) [nM] |
| --- | --- | --- | --- |
| CN[C@@H](C)C(=O)N[C@H]1CS(=O)(=O)c2cc(F)c(-c3nnc(CC(F)(F)F)o3)cc2N(Cc2ccc(OC(F)(F)F)cc2)C1=O [Example 61, (2S)—N-[(3R)-8-fluoro-1,1,4-trioxo-7-[5-(2,2,2-trifluoroethyl)-1,3,4-oxadiazol-2-yl]-5-[[4-(trifluoromethoxy)phenyl]methyl]-2,3-dihydro-1λ^6,5-benzothiazepin-3-yl]-2-(methylamino)propanamide] | 144 | 625 | 1910 |
| CC(C)(CN1CCC(F)(F)CC1)c1nnc(-c2cc3c(cc2F)S(=O)(=O)C[C@H](N)C(=O)N3Cc2ccc(Cl)cc2)o1 [Example 142, (3R)-3-amino-5-[(4-chlorophenyl)methyl]-7-[5-[2-(4,4-difluoro-1-piperidyl)-1,1-dimethyl-ethyl]-1,3,4-oxadiazol-2-yl]-8-fluoro-1,1-dioxo-2,3-dihydro-1λ^6,5-benzothiazepin-4-one] | 66 | 138 | 224 |
| N[C@H]1CS(=O)(=O)c2cc(F)c(-c3nnc(C(=O)N4CCC(F)(F)C4)o3)cc2N(Cc2ccc(Cl)cc2)C1=O [Example 117, (3R)-3-amino-5-[(4-chlorophenyl)methyl]-7-[5-(3,3-difluoropyrrolidine-1-carbonyl)-1,3,4-oxadiazol-2-yl]-8-fluoro-1,1-dioxo-2,3-dihydro-1λ^6,5-benzothiazepin-4-one] | 68 | 5020 | 3570 |
| N[C@H]1CS(=O)(=O)c2ccc(-c3nnc(-c4ccccc4F)o3)cc2N(Cc2ccc(Cl)cc2)C1=O [Example 376, (3R)-3-amino-5-[(4-chlorophenyl)methyl]-7-[5-(2-fluorophenyl)-1,3,4-oxadiazol-2-yl]-1,1-dioxo-2,3-dihydro-1λ^6,5-benzothiazepin-4-one] | 70 | 4460 | 3200 |
| CC(C)(O)Cn1nnc(-c2cc3c(cc2F)S(=O)(=O)C[C@H](N)C(=O)N3Cc2ccc(Cl)cc2)n1 [Example 27, (3R)-3-amino-5-[(4-chlorophenyl)methyl]-8-fluoro-7-[2-(2-hydroxy-2-methyl-propyl)tetrazol-5-yl]-1,1-dioxo-2,3-dihydro-1λ^6,5-benzothiazepin-4-one] | 103 | 2050 | 1230 |
| CC(CC(F)(F)F)Nc1nnc(-c2cc3c(cc2F)S(=O)(=O)C[C@H](N)C(=O)N3Cc2ccc(Cl)cc2)o1 (stereo partly drawn) [Example 506, (3R)-3-amino-5-[(4-chlorophenyl)methyl]-8-fluoro-1,1-dioxo-7-[5-[(3,3,3-trifluoro-1-methyl-propyl)amino]-1,3,4-oxadiazol-2-yl]-2,3-dihydro-1λ^6.5-benzothiazepin-4-one] | 88 | 243 | 1320 |
| N[C@H]1CS(=O)(=O)c2cc(F)c(-c3nnc(C(F)(F)C(F)(F)F)o3)cc2N(Cc2ccc(Cl)cc2)C1=O [Example 185, (3R)-3-amino-5-[(4-chlorophenyl)methyl]-8-fluoro-1,1-dioxo-7-[5-(1,1,2,2,2-pentafluoroethyl)-1,3,4-oxadiazol-2-yl]-2,3-dihydro-1λ^6,5-benzothiazepin-4-one] | 13 | > 10000 | 4930 |
| CC1(C#N)CCN(c2nnc(-c3cc4c(cc3F)S(=O)(=O)C[C@H](N)C(=O)N4Cc3ccc(Cl)cc3)o2)CC1 [Example 468, 4-methyl-1-[5-[(3R)-3-amino-5-[(4-chlorophenyl)methyl]-8-fluoro-1,1,4-trioxo-2,3-dihydro-1λ^6,5-benzothiazepin-7-yl]-1,3,4-oxadiazol-2-yl]piperidine-4-carbonitrile] | 127 | 2670 | 3780 |
| Cc1nc(F)ccc1-c1nnc(-c2cc3c(cc2F)S(=O)(=O)C[C@H](N)C(=O)N3Cc2ccc(Cl)cc2)o1 [Example 131, (3R)-3-amino-5-[(4-chlorophenyl)methyl]-8-fluoro-7-[5-(6-fluoro-2-methyl-3-pyridyl)-1,3,4-oxadiazol-2-yl]-1,1-dioxo-2,3-dihydro-1λ^6,5-benzothiazepin-4-one] | 192 | 347 | 376 |
| CC(C)(CN1CCCCC1)c1nnc(-c2cc3c(cc2F)S(=O)(=O)C[C@H](N)C(=O)N3Cc2ccc(Cl)cc2)o1 [Example 141, (3R)-3-amino-5-[(4-chlorophenyl)methyl]-7-[5-[1,1-dimethyl-2-(1-piperidyl)ethyl]-1,3,4-oxadiazol-2-yl]-8-fluoro-1,1-dioxo-2,3-dihydro-1λ^6,5-benzothiazepin-4-one] | 91 | 768 | 255 |
| N[C@H]1CS(=O)(=O)c2cc(F)c(-c3nnc(C4CC(F)(F)C4)o3)cc2N(Cc2ccc(Cl)cc2)C1=O [Example 80, (3R)-3-Amino-5-[(4-chlorophenyl)methyl]-7-[5-(3,3-difluorocyclobutyl)-1,3,4-oxadiazol-2-yl]-8-fluoro-1,1-dioxo-2,3-dihydro-1λ^6,5-benzothiazepin-4-one] | 278 | 81.5 | 176 |
| N[C@H]1CS(=O)(=O)c2cc(F)c(-c3nnc(-c4ccc(F)cc4)o3)cc2N(Cc2ccc(Cl)cc2)C1=O [Example 99, (3R)-3-amino-5-[(4-chlorophenyl)methyl]-8-fluoro-7-[5-(4-fluorophenyl)-1,3,4-oxadiazol-2-yl]-1,1-dioxo-2,3-dihydro-1λ^6,5-benzothiazepin-4-one] | 112 | 82.2 | 105 |
| COc1ccc(CN2C(=O)[C@@H](N)CS(=O)(=O)c3cc(F)c(-c4nnc(C(C)(C)C)o4)cc32)nc1 [Example 228, (3R)-3-amino-7-(5-tert-butyl-1,3,4-oxadiazol-2-yl)-8-fluoro-5-[(5-methoxy-2-pyridyl)methyl]-1,1-dioxo-2,3-dihydro-1λ^6,5-benzothiazepin-4-one] | 112 | 1740 | 5200 |
| CC(C)(C)c1nc(-c2cc3c(cc2F)S(=N)(=O)C[C@H](N)C(=O)N3Cc2ccc(Cl)cc2)no1 (stereo partly drawn) [Example 516, (3R)-3-amino-7-(5-tert-butyl-1,2,4-oxadiazol-3-yl)-5-[(4-chlorophenyl)methyl]-8-fluoro-1-imino-1-oxo-2,3-dihydro-1λ^6,5-benzothiazepin-4-one] | 51 | 8330 | 2740 |
| C#CCOCCOCCCC(C)(C)Nc1nc(-c2cc3c(cc2F)S(=O)(=O)C[C@H](N)C(=O)N3Cc2ccc(Cl)cc2)no1 [Example 203, (3R)-3-amino-5-[(4-chlorophenyl)methyl]-7-[5-[[1,1-dimethyl-4-(2-prop-2-ynoxyethoxy)butyl]amino]-1,2,4-oxadiazol-3-yl]-8-fluoro-1,1-dioxo-2,3-dihydro-1λ^6,5-benzothiazepin-4-one] | 99 | 233 | 1580 |
| Cc1cccc(-c2nnc(-c3cc4c(cc3F)S(=O)(=O)C[C@H](N)C(=O)N4Cc3ccc(Cl)cc3)o2)c1 [Example 107, (3R)-3-amino-5-[(4-chlorophenyl)methyl]-8-fluoro-7-[5-(m-tolyl)-1,3,4-oxadiazol-2-yl]-1,1-dioxo-2,3-dihydro-1λ^6,5-benzothiazepin-4-one] | 134 | 955 | 188 |
| CS(=O)(=O)N1CCC(n2nnc(-c3cc4c(cc3F)S(=O)(=O)C[C@H](N)C(=O)N4Cc3ccc(Cl)cc3)n2)C1 (stereo partly drawn) [Example 19, (3R)-3-amino-5-[(4-chlorophenyl)methyl]-8-fluoro-7-[2-(1-methylsulfonylpyrrolidin-3-yl)tetrazol-5-yl]-1,1-dioxo-2,3-dihydro-1λ^6,5-benzothiazepin-4-one] | 58 | 1290 | 1170 |
| CN(C)c1cc2c(cc1-c1nnc(C(C)(C)C)o1)N(Cc1ccc(Cl)cc1)C(=O)[C@@H](N)CS2(=O)=O [Example 274, (3R)-3-amino-7-(5-tert-butyl-1,3,4-oxadiazol-2-yl)-5-[(4-chlorophenyl)methyl]-8-(dimethylamino)-1,1-dioxo-2,3-dihydro-1λ^6,5-benzothiazepin-4-one] | 10 | > 20000 | > 20000 |
| N[C@H]1CS(=O)(=O)c2cc(F)c(-c3nnc(C4CCCC4(F)F)o3)cc2N(Cc2ccc(Cl)cc2)C1=O (stereo partly drawn) [Example 76, (3R)-3-Amino-5-[(4-chlorophenyl)methyl]-7-[5-(2,2-difluorocyclopentyl)-1,3,4-oxadiazol-2-yl]-8-fluoro-1,1-dioxo-2,3-dihydro-1λ^6,5-benzothiazepin-4-one] | 173 | 1080 | 749 |
| N[C@H]1CS(=O)(=O)c2cc(F)c(-c3noc(C(=O)NCC(F)(F)F)n3)cc2N(Cc2ccc(Cl)cc2)C1=O [Example 291, 3-[(3R)-3-amino-5-[(4-chlorophenyl)methyl]-8-fluoro-1,1,4-trioxo-2,3-dihydro-1λ^6,5-benzothiazepin-7-yl]-N-(2,2,2-trifluoroethyl)-1,2,4-oxadiazole-5-carboxamide] | 104 | 446 | 1700 |
| N[C@H]1CS(=O)(=O)c2cc(F)c(-c3nnc(CCF)o3)cc2N(Cc2ccc(Cl)cc2)C1=O [Example 83, (3R)-3-Amino-5-[(4-chlorophenyl)methyl]-8-fluoro-7-[5-(2-fluoroethyl)-1,3,4-oxadiazol-2-yl]-1,1-dioxo-2,3-dihydro-1λ^6,5-benzothiazepin-4-one] | 27 | > 20000 | 470 |
| CC(C)(CNC1CCOC1)c1nnc(-c2cc3c(cc2F)S(=O)(=O)C[C@H](N)C(=O)N3Cc2ccc(Cl)cc2)o1 (stereo partly drawn) [Example 157, (3R)-3-amino-5-[(4-chlorophenyl)methyl]-7-[5-[1,1-dimethyl-2-(tetrahydrofuran-3-ylamino)ethyl]-1,3,4-oxadiazol-2-yl]-8-fluoro-1,1-dioxo-2,3-dihydro-1λ^6,5-benzothiazepin-4-one] | 106 | 1010 | 2100 |
